Assay results published in ChEMBL document CHEMBL1134122, “Substituted indole-5-carboxamides and -acetamides as potent nonpeptide GnRH receptor antagonists” (Bioorg Med Chem Lett, 2001).

Tests used:
[1] = target: T1, Gonadotropin-releasing hormone receptor (Rattus norvegicus, UniProt P30969); test: Inhibition GnRH-stimulated luteinizing hormone (LH) release from rat pituitary cells; format: functional, cell-based, Pituitary gland cell
T1 sequence (P30969 whole entry): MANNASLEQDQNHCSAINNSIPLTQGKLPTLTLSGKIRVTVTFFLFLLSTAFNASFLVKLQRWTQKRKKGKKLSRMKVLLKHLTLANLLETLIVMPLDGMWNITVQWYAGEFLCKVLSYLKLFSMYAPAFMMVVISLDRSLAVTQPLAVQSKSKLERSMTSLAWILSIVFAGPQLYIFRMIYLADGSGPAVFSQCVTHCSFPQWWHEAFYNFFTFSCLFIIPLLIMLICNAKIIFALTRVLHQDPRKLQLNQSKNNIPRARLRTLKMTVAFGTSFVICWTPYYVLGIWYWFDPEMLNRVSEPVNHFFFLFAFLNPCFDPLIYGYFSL

[2] = target: T1, Gonadotropin-releasing hormone receptor; test: Inhibition of [125I]buserelin binding to rat pituitary Gonadotropin-releasing hormone receptor, in the presence of 0.1% bovine serum albumin.
[3] = target: T1, Gonadotropin-releasing hormone receptor; test: Inhibition of [125I]buserelin binding to rat pituitary Gonadotropin-releasing hormone receptor, in the absence of bovine serum albumin (BSA)

`CCN(CC)C(=O)C(C)(C)c1ccc2[nH]c(-c3cc(C)cc(C)c3)c(CCNCCCCc3ccc(NS(C)(=O)=O)cc3)c2c1` was tested, and the IC50 [1] was 42 nM, the IC50 [2] was 0.2 nM and the IC50 [3] was 2 nM.
Work on `CCN(CC)C(=O)c1ccc2[nH]c(-c3cc(C)cc(C)c3)c(CCNCCCCc3ccc(NS(C)(=O)=O)cc3)c2c1` yielded an IC50 [1] of 270 nM, an IC50 [2] of 0.2 nM and an IC50 [3] of 2 nM.
`Cc1cc(C)cc(-c2[nH]c3ccc(CC(=O)N4C(C)CCC4C)cc3c2CCNCCCCc2ccc(NS(C)(=O)=O)cc2)c1` (stereo not given) gave an IC50 [1] of 95 nM, an IC50 [2] of 0.1 nM and an IC50 [3] of 3 nM.
Compound `CCOC(=O)c1ccc2[nH]c(-c3cc(C)cc(C)c3)c(CCNCCCCc3ccc(O)cc3)c2c1` has an IC50 [3] of 32 nM.
Work on `CCN(CC)C(=O)C(C)c1ccc2[nH]c(-c3cc(C)cc(C)c3)c(CCNCCCCc3ccc(NS(C)(=O)=O)cc3)c2c1` (stereo not given) yielded an IC50 [1] of 130 nM, an IC50 [2] of 0.2 nM and an IC50 [3] of 2 nM.
In the case of `Cc1cc(C)cc(-c2[nH]c3ccc(C(C)(C)C(=O)N4C(C)CCC4C)cc3c2CCNCCCCc2ccc(NS(C)(=O)=O)cc2)c1` (stereo not given), the IC50 [1] is reported as 65 nM, the IC50 [2] is reported as 0.2 nM and the IC50 [3] is reported as 3 nM.
Compound `CCN(CC)C(=O)Cc1ccc2[nH]c(-c3cc(C)cc(C)c3)c(CCNCCCCc3ccc(NS(C)(=O)=O)cc3)c2c1` has an IC50 [1] of 130 nM, an IC50 [2] of 0.2 nM and an IC50 [3] of 3 nM.
Compound `CCCCN(CC)C(=O)c1ccc2[nH]c(-c3cc(C)cc(C)c3)c(CCNCCCCc3ccc(NS(C)(=O)=O)cc3)c2c1` has an IC50 [1] of 240 nM and an IC50 [3] of 4 nM.
`Cc1cc(C)cc(-c2[nH]c3ccc(C(=O)N4CCOCC4)cc3c2CCNCCCCc2ccc(O)cc2)c1` showed an IC50 [1] of 800 nM and an IC50 [3] of 4 nM.
In the case of `CCOC(=O)C(C)c1ccc2[nH]c(-c3cc(C)cc(C)c3)c(CCNCCCCc3ccc(NS(C)(=O)=O)cc3)c2c1` (stereo not given), the IC50 [1] is reported as 610 nM, the IC50 [2] is reported as 0.5 nM and the IC50 [3] is reported as 4 nM.
In the case of `Cc1cc(C)cc(-c2[nH]c3ccccc3c2CCNCCCCc2ccc(O)cc2)c1`, the IC50 [1] is reported as over 6200 nM.
`Cc1cc(C)cc(-c2[nH]c3ccc(C(C)(C)C(=O)N4CCCC4)cc3c2CCNCCCCc2ccc(NS(C)(=O)=O)cc2)c1` was tested, and the IC50 [1] was 40 nM, the IC50 [2] was 0.2 nM and the IC50 [3] was 2 nM.
Compound `Cc1cc(C)cc(-c2[nH]c3ccc(C(=O)N4CCCC4)cc3c2CCNCCCCc2ccc(NS(C)(=O)=O)cc2)c1` has an IC50 [1] of 510 nM, an IC50 [2] of 0.2 nM and an IC50 [3] of 4 nM.
`Cc1cc(C)cc(-c2[nH]c3ccc(C(=O)N4C5CCC4CC5)cc3c2CCNCCCCc2ccc(NS(C)(=O)=O)cc2)c1` gave an IC50 [1] of 210 nM, an IC50 [2] of 0.4 nM and an IC50 [3] of 3 nM.
`Cc1cc(C)cc(-c2[nH]c3ccc(C(=O)N(CC(C)C)CC(C)C)cc3c2CCNCCCCc2ccc(O)cc2)c1` gave an IC50 [1] of 380 nM.
`CCCN(CCC)C(=O)C(C)(C)c1ccc2[nH]c(-c3cc(C)cc(C)c3)c(CCNCCCCc3ccc(NS(C)(=O)=O)cc3)c2c1` was tested, and the IC50 [1] was 70 nM, the IC50 [2] was 0.4 nM and the IC50 [3] was 5 nM.
Compound `Cc1cc(C)cc(-c2[nH]c3ccc(C(=O)N(CC(C)C)CC(C)C)cc3c2CCNCCCCc2ccc(NS(C)(=O)=O)cc2)c1` has an IC50 [1] of 32 nM and an IC50 [2] of 0.4 nM.
`Cc1cc(C)cc(-c2[nH]c3ccc(C(=O)N(C)C)cc3c2CCNCCCCc2ccc(O)cc2)c1` showed an IC50 [1] of 820 nM and an IC50 [3] of 5 nM.
For `CCCN(CCC)C(=O)c1ccc2[nH]c(-c3cc(C)cc(C)c3)c(CCNCCCCc3ccc(NS(C)(=O)=O)cc3)c2c1`, the IC50 [1] was 140 nM and the IC50 [3] was 5 nM.
`CCN(CC)C(=O)c1ccc2[nH]c(-c3cc(C)cc(C)c3)c(CCNCCCCc3ccc(O)cc3)c2c1` showed an IC50 [1] of 540 nM, an IC50 [2] of 0.5 nM and an IC50 [3] of 6 nM.
In the case of `CCN(C(=O)c1ccc2[nH]c(-c3cc(C)cc(C)c3)c(CCNCCCCc3ccc(NS(C)(=O)=O)cc3)c2c1)C(C)(C)C`, the IC50 [1] is reported as 660 nM and the IC50 [2] is reported as 0.8 nM.
With `Cc1cc(C)cc(-c2[nH]c3ccc(C(C)(C)C(=O)N(C)C)cc3c2CCNCCCCc2ccc(NS(C)(=O)=O)cc2)c1` the IC50 [1] was 160 nM, the IC50 [2] was 0.1 nM and the IC50 [3] was 3 nM.
Work on `Cc1cc(C)cc(-c2[nH]c3ccc(C(=O)N4CCOCC4)cc3c2CCNCCCCc2ccc(NS(C)(=O)=O)cc2)c1` yielded an IC50 [1] of 400 nM, an IC50 [2] of 0.2 nM and an IC50 [3] of 2 nM.
`Cc1cc(C)cc(-c2[nH]c3ccc(C(=O)N(C(C)C)C(C)C)cc3c2CCNCCCCc2ccc(NS(C)(=O)=O)cc2)c1` gave an IC50 [1] of 72 nM, an IC50 [2] of 0.3 nM and an IC50 [3] of 3 nM.
`Cc1cc(C)cc(-c2[nH]c3ccc(CC(=O)N(C)C)cc3c2CCNCCCCc2ccc(NS(C)(=O)=O)cc2)c1` gave an IC50 [1] of 320 nM, an IC50 [2] of 0.1 nM and an IC50 [3] of 2 nM.
`Cc1cc(C)cc(-c2[nH]c3ccc(C(=O)N(C)C)cc3c2CCNCCCCc2ccc(NS(C)(=O)=O)cc2)c1` showed an IC50 [1] of 690 nM and an IC50 [3] of 2 nM.
For `CCN(C(=O)c1ccc2[nH]c(-c3cc(C)cc(C)c3)c(CCNCCCCc3ccc(NS(C)(=O)=O)cc3)c2c1)C(C)C`, the IC50 [1] was 120 nM and the IC50 [3] was 3 nM.
Work on `Cc1cc(C)cc(-c2[nH]c3ccc(C(=O)NCc4ccccc4)cc3c2CCNCCCCc2ccc(O)cc2)c1` yielded an IC50 [3] of 24 nM.
`Cc1cc(C)cc(-c2[nH]c3ccc(OC(=O)N(C)C)cc3c2CCNCCCCc2ccc(O)cc2)c1` showed an IC50 [3] of 3 nM.
In the case of `Cc1cc(C)cc(-c2[nH]c3ccc(C(C)(C)C(=O)N4CCOCC4)cc3c2CCNCCCCc2ccc(NS(C)(=O)=O)cc2)c1`, the IC50 [1] is reported as 81 nM and the IC50 [2] is reported as 0.12 nM.
In the case of `CCOC(=O)C(C)(C)c1ccc2[nH]c(-c3cc(C)cc(C)c3)c(CCNCCCCc3ccc(NS(C)(=O)=O)cc3)c2c1`, the IC50 [1] is reported as 150 nM, the IC50 [2] is reported as 0.3 nM and the IC50 [3] is reported as 3 nM.
`CCOC(=O)Cc1ccc2[nH]c(-c3cc(C)cc(C)c3)c(CCNCCCCc3ccc(NS(C)(=O)=O)cc3)c2c1` was tested, and the IC50 [1] was 2000 nM and the IC50 [3] was 2 nM.
Compound `CCNC(=O)c1ccc2[nH]c(-c3cc(C)cc(C)c3)c(CCNCCCCc3ccc(NS(C)(=O)=O)cc3)c2c1` has an IC50 [1] of 2400 nM and an IC50 [3] of 6 nM.
`Cc1cc(C)cc(-c2[nH]c3ccc(C(=O)N4CCCCC4)cc3c2CCNCCCCc2ccc(NS(C)(=O)=O)cc2)c1` gave an IC50 [1] of 220 nM and an IC50 [3] of 2 nM.
`Cc1cc(C)cc(-c2[nH]c3ccc(C(=O)N4C(C)CCC4C)cc3c2CCNCCCCc2ccc(NS(C)(=O)=O)cc2)c1` (stereo not given) showed an IC50 [1] of 95 nM, an IC50 [2] of 0.2 nM and an IC50 [3] of 3 nM.
For `CCOC(=O)c1ccc2[nH]c(-c3cc(C)cc(C)c3)c(CCNCCCCc3ccc(NS(C)(=O)=O)cc3)c2c1`, the IC50 [1] was over 6200 nM and the IC50 [3] was 14 nM.
